Measured values published in publication PMC9576617, “A new LKB1 activator, piericidin analogue S14, retards renal fibrosis through promoting autophagy and mitochondrial homeostasis in renal tubular epithelial cells” (Theranostics, 2022).

Biological target: T1, LKB1 (Liver kinase B1, STK11) (Homo sapiens, UniProt Q15831)
T1 construct: Recombinant Human LKB1 (CSB-EP624036HU)
T1 sequence (Q15831 1-430): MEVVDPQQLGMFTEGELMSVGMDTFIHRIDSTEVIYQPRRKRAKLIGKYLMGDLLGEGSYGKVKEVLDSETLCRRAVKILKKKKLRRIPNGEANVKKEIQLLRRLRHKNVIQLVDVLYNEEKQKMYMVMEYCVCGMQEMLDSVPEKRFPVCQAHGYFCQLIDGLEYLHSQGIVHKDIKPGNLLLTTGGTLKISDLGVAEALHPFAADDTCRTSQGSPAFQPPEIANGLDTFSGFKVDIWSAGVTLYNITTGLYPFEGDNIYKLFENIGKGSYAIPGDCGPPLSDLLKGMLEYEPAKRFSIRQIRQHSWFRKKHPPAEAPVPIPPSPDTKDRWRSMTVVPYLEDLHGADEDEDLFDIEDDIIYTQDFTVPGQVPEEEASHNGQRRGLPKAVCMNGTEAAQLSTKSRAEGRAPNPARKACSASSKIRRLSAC
Test: SPR imaging (PlexArray HT A100), LKB1 immobilized on a 3D Dextran chip, […] fit
Format: binding

COc1nc(C/C=C(\C)C/C=C/C(C)=C/[C@@H](C)[C@@H](O[C@@H]2O[C@H](CO)[C@@H](O)[C@H](O)[C@H]2O)/C(C)=C/CO)c(C)c(O)c1OC [PA-S14, piericidin analogue S14]
Kd: 120 nM
